{
  "source": "patent US9556156B2",
  "about": "“Compounds, their synthesis and their uses” (priority 2012, dated 2017)",
  "tested_on": "Sprague Dawley (SD) rat",
  "type": "in vivo",
  "experimental": "The general anesthetic activity of Propofol novel drug compound 1004 was evaluated in rats. All animal experiments were performed as per CPCSEA guidelines. The studies were carried out in Sprague Dawley (SD) rat in the weight range […] by intravenous tail vein dosing over a period of 10 seconds. The formulations of the compound 1004 for IV dosing in rats were prepared in pre-mix PEG400 and saline. Formulations of 1004 equivalent to 5 mpk (14 mpk of compd. 1004) and 7.5 mpk (equivalent to 21 mpk of compound 1004) of parent drug Propofol were prepared in 15% PEG400 and 85% normal saline. The monitoring of distinguishable levels of sedation was started during the dosing period and continued till animals regained consciousness. The onset, duration of sleep and recovery time was recorded.",
  "note": "Where two headings read alike, the source gives them in different places.",
  "data": [
    {"compound": "CC(C)c1cccc(C(C)C)c1O", "note": "[Propofol, 2,6-diisopropylphenol]", "values": [
      {"measurement": "General Anesthesia (GA)", "setting": "rat, in vivo", "result": "No GA"},
      {"measurement": "Recovery", "setting": "rat, in vivo", "result": "Complete"}
    ]},
    {"compound": "CNC(=O)c1ccc[n+](COC(=O)Oc2c(C(C)C)cccc2C(C)C)c1.[I-]", "note": "[Compound 1004, 1-(((2,6-diisopropylphenoxy)carbonyloxy)methyl)-3-(methylcarbamoyl)pyridinium iodide]", "values": [
      {"measurement": "Recovery", "setting": "SD rat, IV tail vein, Propofol Eq. 7.5 mpk, vehicle 15% PEG400, 85% NS", "result": "Complete"},
      {"measurement": "General Anesthesia (GA)", "setting": "onset of GA, SD rat, IV tail vein over 10 seconds, Propofol Eq. 7.5 mpk, vehicle 15% PEG400, 85% NS", "result": "After 1 min"}
    ]}
  ]
}
